# According to ChEMBL document CHEMBL4229402, “Kava analogues as agents for treatment of periodontal diseases: Synthesis and initial biological evaluation” (Bioorg Med Chem Lett, 2018):
# Activity calls are given as the source filed them. The rule behind the calls is not given here.
# Legend:
# [1] = tested on: BMDM; test: Antiperiodontic activity in mouse bone marrow macrophages assessed as reduction in Porphyromonas gingivalis-induced TNFalpha levels at 100 ug/ml after 4 hrs by ELISA; format: functional
# [2] = tested on: BMDM; test: Antiperiodontic activity in mouse bone marrow macrophages assessed as reduction in Porphyromonas gingivalis-induced TNFalpha levels at 20 to 100 ug/ml after 4 hrs by ELISA; format: functional
Structure (SMILES),Activity [1],Activity [2]
COC1=CC(=O)O[C@@H](/C=C/c2ccccc2)C1,Active,
CCOC(=O)C1C(=O)C=C(OC(=O)c2ccccc2)CC1(C)C (configuration not stated),,Active
